According to the supplement of paper PMC10307832:

Key:
Test in all cases: relative viability (nuclei count vs DMSO), 5 days (fraction); higher = more cells survive
IPA-3 + Trametinib = compound: C1=CC=C2C(=C1)C=CC(=C2SSC3=C(C=CC4=CC=CC=C43)O)O [IPA-3] + CC(=O)Nc1cccc(-n2c(=O)n(C3CC3)c(=O)c3c(Nc4ccc(I)cc4F)n(C)c(=O)c(C)c32)c1 [Trametinib] (partner 0.02 µM)
In short: (§1)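 One day after seeding in 1536-well plates, lung cancer cell lines were dosed by pin tool. Dosing was either single-drug or a fixed anchor-drug dose plus five library-drug doses (not always all listed) in √10 steps. After 5 days, nuclei were stained in one fix-and-stain step and counted on 4× images, and relative viability is the nuclei count of treated wells over that of vehicle wells, given as the median of duplicate plates.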

IPA-3 + Pemetrexed = compound: C1=CC=C2C(=C1)C=CC(=C2SSC3=C(C=CC4=CC=CC=C43)O)O [IPA-3] + Nc1nc2[nH]cc(CCc3ccc(C(=O)N[C@@H](CCC(=O)O)C(=O)O)cc3)c2c(=O)[nH]1 [Pemetrexed] (partner 0.2 µM)
In short: as §1

Doramapimod + Luminespib = compound: Cc1ccc(-n2nc(C(C)(C)C)cc2NC(=O)Nc2ccc(OCCN3CCOCC3)c3ccccc23)cc1 [Doramapimod] + CCNC(=O)c1noc(-c2cc(C(C)C)c(O)cc2O)c1-c1ccc(CN2CCOCC2)cc1 [Luminespib] (partner 0.01 µM)
In short: as §1

Doramapimod + AZD7762 = compound: Cc1ccc(-n2nc(C(C)(C)C)cc2NC(=O)Nc2ccc(OCCN3CCOCC3)c3ccccc23)cc1 [Doramapimod] + NC(=O)Nc1cc(-c2cccc(F)c2)sc1C(=O)N[C@H]1CCCNC1 [AZD7762] (partner 0.2 µM)
In short: as §1

Cell Line | relative viability (IPA-3 + Trametinib; first compound 0.2 µM) | relative viability (IPA-3 + Trametinib; first compound 0.6325 µM) | relative viability (IPA-3 + Trametinib; first compound 2 µM) | relative viability (IPA-3 + Trametinib; first compound 6.325 µM) | relative viability (IPA-3 + Trametinib; first compound 20 µM) | relative viability (IPA-3 + Pemetrexed; first compound 0.2 µM) | relative viability (IPA-3 + Pemetrexed; first compound 0.6325 µM) | relative viability (IPA-3 + Pemetrexed; first compound 2 µM) | relative viability (IPA-3 + Pemetrexed; first compound 6.325 µM) | relative viability (IPA-3 + Pemetrexed; first compound 20 µM) | relative viability (Doramapimod + Luminespib; first compound 0.02 µM) | relative viability (Doramapimod + Luminespib; first compound 0.06325 µM) | relative viability (Doramapimod + Luminespib; first compound 0.2 µM) | relative viability (Doramapimod + Luminespib; first compound 2 µM) | relative viability (Doramapimod + AZD7762; first compound 0.02 µM) | relative viability (Doramapimod + AZD7762; first compound 0.06325 µM) | relative viability (Doramapimod + AZD7762; first compound 0.2 µM) | relative viability (Doramapimod + AZD7762; first compound 2 µM) | relative viability (Doramapimod + Luminespib; first compound 0.6325 µM) | relative viability (Doramapimod + AZD7762; first compound 0.6325 µM)
HCC-15 | 0.444 | 0.352 | 0.391 | 0.422 | 0.436 | 0.222 | 0.23 | 0.214 | 0.225 | 0.221 | 0.472 | 0.425 | 0.444 | 0.201 | 1.35 | 1.17 | 1.23 | 1.17 | – | –
H3255 | 0.756 | 0.573 | 0.629 | 0.554 | 0.606 | 0.572 | 0.551 | 0.561 | 0.527 | 0.548 | 0.947 | 0.844 | 0.843 | 0.697 | 1.01 | 1 | 0.972 | 0.762 | 0.686 | 0.956
NCI-H1792 | 0.526 | 0.504 | – | 0.407 | 0.495 | 1.33 | 0.486 | – | 0.587 | 0.737 | 0.396 | 0.345 | 0.385 | 0.356 | 0.43 | 0.89 | 0.842 | 0.434 | 0.413 | 0.618
NCI-H1563 | – | – | – | – | – | 0.807 | 0.797 | 0.792 | 1 | 0.864 | 0.449 | 0.548 | 0.535 | 0.481 | – | – | – | – | 0.48 | –
NCI-H596 | 0.842 | 0.756 | 0.861 | 0.801 | 0.818 | 0.592 | 0.497 | 0.469 | 0.552 | 0.435 | 0.927 | 1 | 1 | 0.842 | 1.27 | 1.08 | 1.13 | 1.1 | 0.994 | 1.31
